Measurements taken from patent US6518423B1, “Benzopiperidine derivatives” (Eisai Co., Ltd., priority 1996, dated 2003).

Row | melting point | SMILES
1 | 127 to 130 °C | O=S(=O)(NCCc1cn(Cc2ccc3c(c2)Nc2nccnc2S3)cn1)c1ccccc1
2 | 231 to 233 °C | O=C(NCCc1cn(Cc2ccc3c(c2)Nc2nccnc2S3)cn1)c1ccccc1
3 | 256 to 258 °C | Brc1nccn1Cc1ccc2c(c1)Nc1nccnc1S2
4 | 216 to 219 °C | c1ccc(Cc2nccn2Cc2ccc3c(c2)Nc2nccnc2S3)nc1
5 | 218 to 219 °C | O=Cc1nccn1Cc1ccc2c(c1)Nc1nccnc1S2
6 | 194 to 196 °C | CCOC(=O)c1c(C)ncn1Cc1ccc2c(c1)Nc1nccnc1S2
7 | > 298 °C | Cc1c(C(N)=O)ncn1Cc1ccc2c(c1)Nc1nccnc1S2
8 | 194 to 197 °C | CCCCCCCCC/C(=C\c1ncn(Cc2ccc3c(c2)Nc2nccnc2S3)c1C)C(=O)O
9 | 243 to 244 °C | O=C(O)/C=C/c1nccn1Cc1ccc2c(c1)Nc1nccnc1S2
10 | 187 to 189 °C | NS(=O)(=O)NCCc1cn(Cc2ccc3c(c2)Nc2nccnc2S3)cn1
11 | 165 to 167 °C | Cc1oncc1C(=O)NCCc1cn(Cc2ccc3c(c2)Nc2nccnc2S3)cn1
12 | > 270 °C (dec.) | Cc1c(CO)ncn1Cc1ccc2c(c1)Nc1nccnc1S2
13 | 249 to 251 °C | c1cnc2c(c1)ncn2Cc1ccc2c(c1)Nc1nccnc1S2
14 | 160 to 161 °C | c1csc(Cc2ccc3c(c2)Nc2nccnc2S3)n1
15 | 185 to 187 °C | O=C(O)C(F)C1C2CCCC1CN(Cc1ccc3c(c1)Nc1nccnc1S3)C2 (stereo not shown)
16 | 202 to 203 °C | OC(c1ccc2c(c1)Nc1nccnc1S2)c1cc(Br)ccc1F (stereo not shown)
17 | 221 to 223 °C | OC(c1ccc(Br)nc1)c1ccc2c(c1)Nc1nccnc1S2 (stereo not shown)
18 | 157 to 159 °C | FC(c1cccnc1)c1ccc2c(c1)Nc1nccnc1S2 (stereo not shown)
19 | 155 to 158 °C | O=C(O)CC1CC2CCC(C1)N2Cc1ccc2c(c1)Nc1nccnc1S2 (stereo not shown)
20 | 183 to 186 °C | c1ccc(NCc2ccc3c(c2)Nc2nccnc2S3)cc1
21 | 172 to 174 °C | CN(Cc1ccc2c(c1)Nc1nccnc1S2)c1ccccc1
22 | 210 to 212 °C | NS(=O)(=O)c1ccc(CNCc2ccc3c(c2)Nc2nccnc2S3)cc1
23 | 200 to 202 °C | CN(CCCC(C)(C)C(=O)O)Cc1ccc2c(c1)Nc1nccnc1S2
24 | 252 to 256 °C | Cl.O=C(O)Cc1ccc(NCc2ccc3c(c2)Nc2nccnc2S3)cc1
25 | 145 to 148 °C | CN(C)CCCNC(=O)Cc1ccc2c(c1)Nc1nccnc1S2

Row | melting point | SMILES
26 | 169 to 171 °C | CCCCNC(=O)OCc1ccc2c(c1)Nc1nccnc1S2
27 | > 275 °C | O=c1[nH]cnc2c1ncn2Cc1ccc2c(c1)Nc1nccnc1S2
28 | 239 to 241 °C | c1ccc(C2CCN(c3ncnc4c3ncn4Cc3ccc4c(c3)Nc3nccnc3S4)CC2)cc1
29 | > 290 °C | N#CN=C(N)c1ncnc2c1ncn2Cc1ccc2c(c1)Nc1nccnc1S2
30 | 158 to 161 °C | CN(C)C(=O)/N=C(\N)Cc1ccc2c(c1)Nc1nccnc1S2
31 | 265 to 267 °C | N=C(Cc1ccc2c(c1)Nc1nccnc1S2)N1CCC(O)CC1
32 | 219 to 220 °C | CCOC(=O)C(C)CCC1CCN(C(=N)Cc2ccc3c(c2)Nc2nccnc2S3)CC1.Cl (stereo not shown)
33 | 215 to 218 °C | CN(C)S(=O)(=O)NC1CCN(C(=N)Cc2ccc3c(c2)Nc2nccnc2S3)CC1.Cl
34 | 172 to 174 °C | CONC(Cc1ccc2c(c1)Nc1nccnc1S2)=NC#N
35 | 137 to 142 °C | C(=N\c1ccccn1)/NCc1ccc2c(c1)Nc1nccnc1S2
36 | 197 to 198 °C | CN(C=NC#N)Cc1ccc2c(c1)Nc1nccnc1S2
37 | 212 to 214 °C | CC(=O)NC1CCN(Cc2ccc3c(c2)Nc2nccnc2S3)CC1
38 | 172 to 173 °C | CN(C)S(=O)(=O)NC1CCN(Cc2ccc3c(c2)Sc2nccnc2N3)CC1
39 | 194 to 196 °C | COC(=O)CNS(=O)(=O)NC1CCN(Cc2ccc3c(c2)Nc2nccnc2S3)CC1
40 | 180 to 182 °C | O=C1CC2(CCN(Cc3ccc4c(c3)Nc3nccnc3S4)CC2)CO1
41 | 216 to 218 °C | CNS(=O)(=O)NC1CCN(Cc2ccc3c(c2)Nc2ncccc2S3)CC1
42 | 168 to 172 °C | c1cnc2c(n1)Nc1cc(CN3CCc4ccoc4C3)ccc1S2
43 | 234 °C (dec.) | CC(=NC#N)N1CCN(Cc2ccc3c(c2)Nc2nccnc2S3)CC1
44 | 207 to 209 °C | C/C(=C\C(=O)O)C1CCN(Cc2ccc3c(c2)Nc2nccnc2S3)CC1
45 | 240 to 243 °C | CC(C(=O)O)C1CCN(Cc2ccc3c(c2)Nc2nccnc2S3)CC1 (stereo not shown)
46 | 239 to 242 °C | CC(CCC1CCN(CC(O)c2ccc3c(c2)Nc2nccnc2S3)CC1)C(=O)O (stereo not shown)
47 | 272 to 275 °C | CC(C)(CC(=O)O)C1CCN(Cc2ccc3c(c2)Nc2nccnc2S3)CC1
48 | 54 to 55 °C | O=C(O)C1CCN(S(=O)(=O)NC2CCN(Cc3ccc4c(c3)Nc3nccnc3S4)CC2)CC1
49 | 226 to 227 °C | CCOC1(CC(=O)O)CC2(CCN(Cc3ccc4c(c3)Nc3nccnc3S4)CC2)C1
50 | 251 to 252 °C | CC(C(=O)O)=C1CC2(CCN(Cc3ccc4c(c3)Nc3nccnc3S4)CC2)C1

Row | melting point | SMILES
51 | 221 to 222 °C | CC(CCC1CCN(Cc2ccc3c(c2)Sc2nccnc2N3)CC1)C(=O)O (stereo not shown)
52 | 222 to 226 °C | O=C(O)C(=O)NC1CCN(Cc2ccc3c(c2)Nc2nccnc2S3)CC1
53 | 91 to 93 °C | C/C(=C\CC1CCN(Cc2ccc3c(c2)Nc2nccnc2S3)CC1)C(=O)O
54 | 207 to 210 °C | O=C(O)CNC(=O)NC1CCN(Cc2ccc3c(c2)Nc2nccnc2S3)CC1
55 | 142 to 146 °C | O=C(O)CC1CCN(Cc2ccc3c(c2)Nc2nccnc2S3)CC1
56 | 84 to 89 °C | CC(CCC1CCN(C(=O)Cc2ccc3c(c2)Nc2nccnc2S3)CC1)C(=O)O (stereo not shown)
57 | 215 to 217 °C | c1ccc2c(c1)Nc1nccnc1N2
58 | 191 to 194 °C | OCC(O)CN1c2ccccc2Nc2nccnc21 (stereo not shown)
59 | 197 to 198 °C | COCOc1ccc2c(c1)Nc1nccnc1N2C
60 | 239 to 242 °C | CCOC(=O)c1ccc2c(c1)Nc1nccnc1N2C
61 | 138 to 139 °C | OCCCCN1c2ccccc2Nc2nccnc21
62 | 117 to 122 °C | CN1c2ccc(CN)cc2Nc2nccnc21
63 | 218 to 222 °C | CS(=O)(=O)NCCN1c2ccccc2Nc2nccnc21
64 | 160 to 164 °C | c1ccc2ncc(NCc3ccc4c(c3)Nc3nccnc3S4)cc2c1
65 | 104 to 106 °C | c1cncc(CNCc2ccc3c(c2)Nc2nccnc2S3)c1
66 | 156 to 160 °C | OCc1cc(NCc2ccc3c(c2)Nc2nccnc2S3)ccn1
67 | 208 to 211 °C | c1ccc(CNc2ccc(NCc3ccc4c(c3)Nc3nccnc3S4)cn2)cc1
68 | 168 to 172 °C | COc1ccc(NCc2ccc3c(c2)Nc2nccnc2S3)cn1
69 | 162 to 165 °C | c1ccc(Oc2ccc(NCc3ccc4c(c3)Nc3nccnc3S4)cn2)cc1
70 | 162 to 164 °C | c1ccc(Cc2ccc(NCc3ccc4c(c3)Nc3nccnc3S4)cn2)cc1
71 | 170 °C | O=C(O)COc1ccc(NCc2ccc3c(c2)Nc2nccnc2S3)cn1
72 | 114 to 116 °C | O=C(O)CSc1ccc(NCc2ccc3c(c2)Nc2nccnc2S3)cn1
73 | 205 to 260 °C | O=S(=O)(c1ccccc1)N(Cc1ccc2c(c1)Nc1nccnc1S2)c1cccnc1
